The values below come from BindingDB's records for doi:10.1021/jm8013458 (University of Copenhagen, 2009).

The IC50 is the concentration at which inhibition is half-maximal. Read a low IC50 as greater potency.

For experiment [1], the target named is Excitatory amino acid transporter 1 (Homo sapiens, UniProt P43003). Kind of experiment: Displacement of [3H]D-Asp from human EAAT1 receptor expressed in HEK293 cells. For orientation: Loss of bound radioactivity is the signal in a displacement assay; it reports binding, not function.
For experiment [2], the target named is Excitatory amino acid transporter 2 (Homo sapiens, UniProt P43004). The experiment can be described thus: Displacement of [3H]D-Asp from human EAAT2 receptor expressed in HEK293 cells.
Experiment [3] has as its target T1, Excitatory amino acid transporter 3 (Homo sapiens, UniProt P43005).
T1 sequence (P43005 whole entry): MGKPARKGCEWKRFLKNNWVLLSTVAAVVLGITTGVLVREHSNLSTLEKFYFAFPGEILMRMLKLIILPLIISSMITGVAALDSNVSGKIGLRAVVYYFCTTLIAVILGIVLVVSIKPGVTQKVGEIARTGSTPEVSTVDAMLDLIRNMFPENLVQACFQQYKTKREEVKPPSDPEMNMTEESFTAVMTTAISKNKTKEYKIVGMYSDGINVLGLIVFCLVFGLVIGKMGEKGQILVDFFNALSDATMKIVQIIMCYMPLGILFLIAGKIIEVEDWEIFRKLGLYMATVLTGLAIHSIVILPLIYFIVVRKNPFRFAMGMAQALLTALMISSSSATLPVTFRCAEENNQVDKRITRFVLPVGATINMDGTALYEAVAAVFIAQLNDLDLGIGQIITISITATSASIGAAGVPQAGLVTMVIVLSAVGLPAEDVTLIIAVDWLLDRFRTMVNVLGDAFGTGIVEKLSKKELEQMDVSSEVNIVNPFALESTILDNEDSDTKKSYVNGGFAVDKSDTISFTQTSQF
The experiment can be described thus: Displacement of [3H]D-Asp from human EAAT3 receptor expressed in HEK293 cells.

Some results are limits rather than exact numbers.

Chain of Excitatory amino acid transporter 2 (P43004 whole entry): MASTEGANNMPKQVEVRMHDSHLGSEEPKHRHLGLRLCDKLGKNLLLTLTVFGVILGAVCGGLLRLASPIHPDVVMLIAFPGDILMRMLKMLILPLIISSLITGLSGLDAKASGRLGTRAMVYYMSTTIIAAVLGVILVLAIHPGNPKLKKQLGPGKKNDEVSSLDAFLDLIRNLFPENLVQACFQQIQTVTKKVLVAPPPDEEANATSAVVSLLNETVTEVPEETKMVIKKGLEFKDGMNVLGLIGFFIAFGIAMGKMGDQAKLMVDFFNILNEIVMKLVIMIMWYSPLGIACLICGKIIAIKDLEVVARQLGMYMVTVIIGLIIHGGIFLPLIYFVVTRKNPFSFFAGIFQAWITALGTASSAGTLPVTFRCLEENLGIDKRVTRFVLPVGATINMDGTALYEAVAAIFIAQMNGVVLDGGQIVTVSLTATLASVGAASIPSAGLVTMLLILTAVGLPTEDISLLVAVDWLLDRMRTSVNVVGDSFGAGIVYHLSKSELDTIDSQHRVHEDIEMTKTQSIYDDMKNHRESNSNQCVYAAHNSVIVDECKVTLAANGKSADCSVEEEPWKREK
Chain of Excitatory amino acid transporter 1 (P43003 whole entry): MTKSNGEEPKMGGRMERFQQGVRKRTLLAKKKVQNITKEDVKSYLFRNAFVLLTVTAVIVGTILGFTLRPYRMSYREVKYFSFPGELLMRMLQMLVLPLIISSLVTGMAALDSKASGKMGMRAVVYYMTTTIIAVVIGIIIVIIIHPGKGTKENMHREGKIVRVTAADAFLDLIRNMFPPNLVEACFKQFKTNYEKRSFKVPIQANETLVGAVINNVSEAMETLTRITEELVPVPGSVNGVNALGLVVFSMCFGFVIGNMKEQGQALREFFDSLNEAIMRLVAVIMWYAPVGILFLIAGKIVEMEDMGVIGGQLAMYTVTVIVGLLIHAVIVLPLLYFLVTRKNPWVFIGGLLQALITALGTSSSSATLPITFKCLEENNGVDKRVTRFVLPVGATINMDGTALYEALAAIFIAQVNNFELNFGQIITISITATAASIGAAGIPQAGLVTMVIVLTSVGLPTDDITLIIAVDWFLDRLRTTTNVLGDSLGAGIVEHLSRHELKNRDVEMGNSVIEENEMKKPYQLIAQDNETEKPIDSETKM

`COc1cccc(C2C3=C(CC(c4ccccc4)CC3=O)OC(=N)C2C#N)c1OC` (centres undefined) [2-amino-4-(2,3-dimethoxyphenyl)-5-oxo-7-phenyl-5,6,7,8-tetrahydro-4H-chromene-3-carbonitrile] had an IC50 in experiment [1] of 50.1 µM.
Regarding `CSc1ccc(C2C3=C(CC(c4ccccc4)CC3=O)OC(=N)C2C#N)cc1` (centres undefined) [2-amino-4-(4-(methylthio)phenyl)-5-oxo-7-phenyl-5,6,7,8-tetrahydro-4H-chromene-3-carbonitrile], the half-inhibitory concentration (IC50) in experiment [2] and in experiment [3] was > 100 µM each time.
Consider `N#CC1C(=N)OC2=C(C(=O)CC(c3ccccc3)C2)C1c1cccnc1` (centres undefined) [2-amino-5-oxo-7-phenyl-4-(pyridin-3-yl)-5,6,7,8-tetrahydro-4H-chromene-3-carbonitrile], for which the half-maximal inhibitory concentration (IC50) in experiment [2] is > 300 µM; in experiment [3], > 300 µM; in experiment [1], 30 µM.
As to `N#CC1CC2=C(CC(c3ccccc3)CC2=O)OC1=N` (centres undefined) [2-Amino-5-oxo-7-phenyl-5,6,7,8-tetrahydro-4H-chromene-3-carbonitrile], the IC50 in experiment [2], in experiment [3] and in experiment [1] was > 300 µM in each case.
Regarding `COc1ccc(C2C3=C(CC(c4ccco4)CC3=O)OC(=N)C2C#N)cc1OC(=O)N1CCOCC1` (centres undefined) [5-(2-amino-3-cyano-7-(furan-2-yl)-5-oxo-5,6,7,8-tetrahydro-4H-chromen-4-yl)-2-methoxyphenyl morpholine-4-carboxylate], the concentration for half-maximal inhibition (IC50) in experiment [2] is > 300 µM; in experiment [3], > 300 µM; in experiment [1] it was 100 µM.
For `CC1CC(=O)C2=C(C1)OC(=N)C(C#N)C2c1ccc2c(c1)OCO2` (centres undefined) [2-amino-4-(benzo[d][1,3]dioxol-5-yl)-7-methyl-5-oxo-5,6,7,8-tetrahydro-4H-chromene-3-carbonitrile], the IC50 in experiment [2], in experiment [3] and in experiment [1] was > 300 µM each time.
Consider `COc1ccc(C2C3=C(CC(c4ccccc4Cl)CC3=O)OC(=N)C2C#N)cc1` (centres undefined) [2-amino-7-(2-chlorophenyl)-4-(4-methoxyphenyl)-5-oxo-5,6,7,8-tetrahydro-4H-chromene-3-carbonitrile], for which the IC50 in experiment [2] and in experiment [3] was > 300 µM throughout.
For the compound `N#CC1C(=N)OC2=C(C(=O)CCC2)C1c1ccccc1F` (centres undefined) [2-amino-4-(2-fluorophenyl)-5-oxo-5,6,7,8-tetrahydro-4H-chromene-3-carbonitrile], the IC50 in experiment [2], in experiment [3] and in experiment [1] was > 300 µM in each case.
On to `N#CC1C(=N)OC2=C(C(=O)CC(c3ccccc3)C2)C1c1ccc(-c2ccccc2)cc1` (centres undefined) [2-amino-4-(biphenyl-4-yl)-5-oxo-7-phenyl-5,6,7,8-tetrahydro-4H-chromene-3-carbonitrile], for which the IC50 in experiment [2] and in experiment [3] was > 100 µM in each case.
For the compound `CC1C2=C(CC(c3ccccc3)CC2=O)OC(=N)C1C#N` (centres undefined) [2-amino-4-methyl-5-oxo-7-phenyl-5,6,7,8-tetrahydro-4H-chromene-3-carbonitrile], the IC50 is > 316 µM in experiment [2] and > 300 µM in experiment [3].
For the compound `N#CC1C(=N)OC2=C(C(=O)CC(c3ccccc3)C2)C1c1ccc([N+](=O)[O-])cc1` (centres undefined) [2-amino-4-(4-nitrophenyl)-5-oxo-7-phenyl-5,6,7,8-tetrahydro-4H-chromene-3-carbonitrile], the IC50 in experiment [2] is > 100 µM; in experiment [3] it was > 100 µM; in experiment [1], 3.6 µM.
As for `N#CC1C(=N)OC2=C(C(=O)CC(c3ccccc3)C2)C1c1ccc2c(c1)OCO2` (centres undefined), the 50% inhibitory concentration (IC50) in experiment [2] and in experiment [3] was > 300 µM throughout.
For `N#CC1C(=N)OC2=C(C(=O)CC(c3ccccc3)C2)C1c1ccc2ccccc2c1` (centres undefined) [2-amino-4-(naphthalen-2-yl)-5-oxo-7-phenyl-5,6,7,8-tetrahydro-4H-chromene-3-carbonitrile], the half-maximal inhibitory concentration (IC50) is > 100 µM in experiment [2], > 100 µM in experiment [3] and 3.6 µM in experiment [1].
For the compound `N#CC1C(=N)OC2=C(C(=O)CC(c3ccco3)C2)C1c1ccccc1` (centres undefined) [2-amino-7-(furan-2-yl)-5-oxo-4-phenyl-5,6,7,8-tetrahydro-4H-chromene-3-carbonitrile], the half-inhibitory concentration (IC50) in experiment [2] and in experiment [3] was > 300 µM each time.
Consider `COc1ccc(C2C3=C(CC(c4ccc(OC)c(OC)c4)CC3=O)OC(=N)C2C#N)cc1` (centres undefined) [2-Amino-4-(4-methoxyphenyl)-7-(3,4-dimethoxyphenyl)-5-oxo-5,6,7,8-tetrahydro-4H-chromene-3-carbonitrile], for which the IC50 in experiment [2] and in experiment [3] was > 300 µM throughout.
Turning to `N#CC1C(=N)OC2=C(C(=O)CC(c3ccccc3)C2)C1Cc1ccccc1` (centres undefined) [2-amino-4-benzyl-5-oxo-7-phenyl-5,6,7,8-tetrahydro-4H-chromene-3-carbonitrile], the 50% inhibitory concentration (IC50) in experiment [2] was > 100 µM; in experiment [3], > 100 µM; in experiment [1], 30 µM.
On to `COc1ccc(C2C3=C(CC(c4cccc5ccccc45)CC3=O)OC(=N)C2C#N)cc1` (centres undefined) [2-Amino-4-(4-methoxyphenyl)-7-(naphthalene-1-yl)-5-oxo-5,6,7,8-tetrahydro-4H-chromene-3-carbonitrile], for which the IC50 in experiment [2] is > 300 µM; in experiment [3] it was > 300 µM; in experiment [1], 0.66 µM.
As to `N#CC1C(=N)OC2=C(C(=O)CC(c3cccs3)C2)C1c1ccc([N+](=O)[O-])cc1` (centres undefined) [2-amino-4-(4-nitrophenyl)-5-oxo-7-(thiophen-2-yl)-5,6,7,8-tetrahydro-4H-chromene-3-carbonitrile], the IC50 in experiment [2] and in experiment [3] was > 300 µM in each case.
